{
  "source": "patent US20240325398A1",
  "about": "“COMBINATION THERAPIES” (Infinity Pharmaceuticals, Inc., priority 2014, published 2024)",
  "key": {"HH": {"system": "HH", "assay": "Combination study, ATPLite 72 h, dose matrix (Synergy Score, CI50)", "format": "cell-based", "conditions": "combination with Compound 1", "procedure": "The method is described as follows.\nAdditive effect is CI=1.0. […] Antagonistic effect is CI>1.0.\nThe Synergy Score is calculated as: […]"}, "HBL-1": {"system": "HBL-1", "assay": "Combination study, ATPLite 72 h, dose matrix (Synergy Score, CI50)", "conditions": "combination with Compound 1, 72 h"}, "OCI-Ly3": {"system": "OCI-Ly3", "assay": "Combination study, ATPLite 72 h, dose matrix (Synergy Score, CI50)", "conditions": "combination with Compound 1; OCI-Ly3; 72 h"}, "U-2932": {"system": "U-2932", "assay": "Combination study, ATPLite 72 h, dose matrix (Synergy Score, CI50)", "conditions": "combination with Compound 1, 72 h"}, "TMD8": {"system": "TMD8", "assay": "Combination study, ATPLite 72 h, dose matrix (Synergy Score, CI50)", "conditions": "combination with Compound 1; TMD8; 72 h"}, "OCI-Ly7": {"system": "OCI-Ly7", "assay": "Combination study, ATPLite 72 h, dose matrix (Synergy Score, CI50)", "conditions": "combination with Compound 1, 72 h"}, "SU-DHL-4-epst": {"system": "SU-DHL-4-epst", "assay": "Combination study, ATPLite 72 h, dose matrix (Synergy Score, CI50)", "conditions": "combination with Compound 1, 72 h"}, "DOHH-2": {"system": "DOHH-2", "assay": "Combination study, ATPLite 72 h, dose matrix (Synergy Score, CI50)", "conditions": "combination with Compound 1, 72 h"}, "Farage": {"system": "Farage", "assay": "Combination study, ATPLite 72 h, dose matrix (Synergy Score, CI50)", "conditions": "combination with Compound 1; Farage; 72 h"}, "SU-DHL-10-epst": {"system": "SU-DHL-10-epst", "assay": "Combination study, ATPLite 72 h, dose matrix (Synergy Score, CI50)", "conditions": "combination with Compound 1, 72 h", "experimental": "(§1) Cells are thawed from a liquid nitrogen preserved state. Once cells have been expanded and divide at their expected doubling times, screening begins. Cells are seeded in growth media in either black 1536-well or 384-well tissue culture treated plates. Cells are then equilibrated in assay plates via centrifugation and placed in incubators attached to the Dosing Modules at 37° C. for 24 hours before treatment. […] These Tzero (To) plates are read using ultra-sensitive luminescence on Envision plate readers (Perkin Elmer). Treated assay plates are incubated with compound for 72 hours. After 72 hours, plates are developed for endpoint analysis using ATPLite. All data points are collected via automated processes, quality controlled and analyzed using Zalicus software.\nThe measure of effect in the experiment can be the inhibition of cellular response relative to the untreated level (vehicle alone). […] The inhibition ranges from 0% at the untreated level to 100% when T=0. Inhibition levels are negative for agents that actually increase levels.\n(§2) Growth Inhibition (GI) is used as a measure of cell viability. […] A GI reading of 100% represents complete growth inhibition—T72 compound-treated and T0 vehicle signals are matched. […] A GI reading of 200% represents complete death of all cells in the culture well. Compounds reaching an activity plateau of GI 200% are considered cytotoxic. GI is calculated by applying the following test and equation:\n(§3) Combination analysis data were collected in a 6×6 dose matrix. Synergy is calculated by comparing a combination's response to those of its single compound, against the drug-with-itself dose-additive reference model. Deviations from dose additivity may be assessed visually on an isobologram or numerically with a Combination Index (CI). […] Additive effect is CI=1.0. […] Antagonistic effect is CI>1.0.\n(§4) To measure combination effects in excess of Loewe additivity, a scalar measure to characterize the strength of synergistic interaction termed the Synergy Score is devised. The Synergy Score is calculated as:\n(§5) The fractional inhibition for each component agent and combination point in the matrix is calculated relative to the median of all vehicle-treated control wells. The Synergy Score equation integrates the experimentally-observed activity volume at each point in the matrix in excess of a model surface numerically derived from the activity of the component agents using the Loewe model for additivity. Additional terms in the Synergy Score equation (above) are used to normalize for various dilution factors used for individual agents and to allow for comparison of synergy scores across an entire experiment. The inclusion of positive inhibition gating or an Idata multiplier removes noise near the zero effect level, and biases results for synergistic interactions at that occur at high activity levels.\nLoewe Volume (Loewe Vol) is used to assess the overall magnitude of the combination interaction in excess of the Loewe additivity model. Loewe Volume is particularly useful when distinguishing synergistic increases in a phenotypic activity (positive Loewe Volume) versus synergistic antagonisms (negative Loewe Volume). […] This model defines additivity as a non-synergistic combination interaction where the combination dose matrix surface should be indistinguishable from either drug crossed with itself. The calculation for Loewe additivity is:"}, "RL": {"system": "RL", "assay": "Combination study, ATPLite 72 h, dose matrix (Synergy Score, CI50)", "conditions": "combination with Compound 1, 72 h"}, "KARPAS-422": {"system": "KARPAS-422", "assay": "Combination study, ATPLite 72 h, dose matrix (Synergy Score, CI50)", "conditions": "combination with Compound 1, 72 h"}, "WSU-NHL": {"system": "WSU-NHL", "assay": "Combination study, ATPLite 72 h, dose matrix (Synergy Score, CI50)", "conditions": "combination with Compound 1, 72 h", "experimental": "as §1\n(§6) where T is treated cell count and V is untreated (vehicle) cell count (at 72 hours). I ranges from 0% (when T=V) to 100% (when T=0). […] The measure of effect in the experiment can be the inhibition of cellular response relative to the untreated level (vehicle alone). […] The inhibition ranges from 0% at the untreated level to 100% when T=0. Inhibition levels are negative for agents that actually increase levels. Other effect measures, such as an activity ratio r=T/V may be more appropriate for some assays. When activity ratios (e.g, fold increase over stimulated control) are being used, the effect can be measured using an induction 1=ln(T/V). With this definition, all effect expressions are the same as for inhibition.\nas §2, §3, §4, §5\n(§7) Loewe Volume (Loewe Vol) is used to assess the overall magnitude of the combination interaction in excess of the Loewe additivity model. Loewe Volume is particularly useful when distinguishing synergistic increases in a phenotypic activity (positive Loewe Volume) versus synergistic antagonisms (negative Loewe Volume). […] This model defines additivity as a non-synergistic combination interaction where the combination dose matrix surface should be indistinguishable from either drug crossed with itself."}, "KARPAS-299": {"system": "KARPAS-299", "assay": "Combination study, ATPLite 72 h, dose matrix (Synergy Score, CI50)", "conditions": "combination with Compound 1", "experimental": "as §1, §6, §2, §3, §4, §5, §7"}, "GRANTA-519": {"system": "GRANTA-519", "assay": "Combination study, ATPLite 72 h, dose matrix (Synergy Score, CI50)", "conditions": "combination with Compound 1"}, "Jeko-1": {"system": "Jeko-1", "assay": "Combination study, ATPLite 72 h, dose matrix (Synergy Score, CI50)", "conditions": "combination with Compound 1"}, "Mino": {"system": "Mino", "assay": "Combination study, ATPLite 72 h, dose matrix (Synergy Score, CI50)", "conditions": "combination with Compound 1"}, "NCI-H929": {"system": "NCI-H929", "assay": "Combination study, ATPLite 72 h, dose matrix (Synergy Score, CI50)", "conditions": "combination with Compound 1"}, "[1]": {"assay": "Combination study, ATPLite 72 h, dose matrix (Synergy Score, CI50)", "conditions": "combination with Compound 1; OPM-2"}, "OMP-2": {"system": "OMP-2", "assay": "Combination study, ATPLite 72 h, dose matrix (Synergy Score, CI50)", "conditions": "combination with Compound 1; OPM-2"}, "RPMI-8226": {"system": "RPMI-8226", "assay": "Combination study, ATPLite 72 h, dose matrix (Synergy Score, CI50)", "conditions": "combination with Compound 1"}},
  "data": [
    {"molecule": "Nc1cccc2c1CN(C1CCC(=O)NC1=O)C2=O", "note": "(stereo not drawn) [lenalidomide, 3-(4-Amino-1-oxo 1,3-dihydro-2H-isoindol-2-yl)piperidine-2,6-dione]", "values": [
      {"measurement": "CI50 growth inhibition", "setting": "HH", "result": "W (W=≥1)"},
      {"measurement": "CI50 inhibition", "setting": "HH", "result": "T (T=0.5 to <0.7)"},
      {"measurement": "Synergy Score growth inhibition", "setting": "HH", "result": "A2 (A2=1 to <3)"},
      {"measurement": "Synergy Score inhibition", "setting": "HH", "result": "A1 (A1=0.0001 to <1)"},
      {"measurement": "CI50 growth inhibition", "setting": "HBL-1", "result": "W (W=≥1)"},
      {"measurement": "Synergy Score growth inhibition", "setting": "HBL-1", "result": "A1 (A1=0.0001 to <1)"},
      {"measurement": "Synergy Score inhibition", "setting": "HBL-1", "result": "A1 (A1=0.0001 to <1)"},
      {"measurement": "CI50 growth inhibition", "setting": "OCI-Ly3", "result": "W (W=≥1)"},
      {"measurement": "Synergy Score growth inhibition", "setting": "OCI-Ly3", "result": "A1 (A1=0.0001 to <1)"},
      {"measurement": "Synergy Score inhibition", "setting": "OCI-Ly3", "result": "A1 (A1=0.0001 to <1)"},
      {"measurement": "CI50 growth inhibition", "setting": "U-2932", "result": "U (U=0.7 to <1)"},
      {"measurement": "Synergy Score growth inhibition", "setting": "U-2932", "result": "A1 (A1=0.0001 to <1)"},
      {"measurement": "Synergy Score inhibition", "setting": "U-2932", "result": "A1 (A1=0.0001 to <1)"},
      {"measurement": "CI50 growth inhibition", "setting": "TMD8", "result": "S (S=0.01 to <0.5)"},
      {"measurement": "CI50 inhibition", "setting": "TMD8", "result": "S (S=0.01 to <0.5)"},
      {"measurement": "Synergy Score growth inhibition", "setting": "TMD8", "result": "A3 (A3=>3)"},
      {"measurement": "Synergy Score inhibition", "setting": "TMD8", "result": "A3 (A3=>3)"},
      {"measurement": "Synergy Score growth inhibition", "setting": "OCI-Ly7", "result": "A1 (A1=0.0001 to <1)"},
      {"measurement": "Synergy Score inhibition", "setting": "OCI-Ly7", "result": "A1 (A1=0.0001 to <1)"},
      {"measurement": "CI50 growth inhibition", "setting": "SU-DHL-4-epst", "result": "W (W=≥1)"},
      {"measurement": "CI50 inhibition", "setting": "SU-DHL-4-epst", "result": "T (T=0.5 to <0.7)"},
      {"measurement": "Synergy Score growth inhibition", "setting": "SU-DHL-4-epst", "result": "A2 (A2=1 to <3)"},
      {"measurement": "Synergy Score inhibition", "setting": "SU-DHL-4-epst", "result": "A1 (A1=0.0001 to <1)"},
      {"measurement": "CI50 growth inhibition", "setting": "DOHH-2", "result": "S (S=0.01 to <0.5)"},
      {"measurement": "CI50 inhibition", "setting": "DOHH-2", "result": "S (S=0.01 to <0.5)"},
      {"measurement": "Synergy Score growth inhibition", "setting": "DOHH-2", "result": "A3 (A3=>3)"},
      {"measurement": "Synergy Score inhibition", "setting": "DOHH-2", "result": "A2 (A2=1 to <3)"},
      {"measurement": "CI50 growth inhibition", "setting": "Farage", "result": "W (W=≥1)"},
      {"measurement": "CI50 inhibition", "setting": "Farage", "result": "W (W=≥1)"},
      {"measurement": "Synergy Score growth inhibition", "setting": "Farage", "result": "A2 (A2=1 to <3)"},
      {"measurement": "Synergy Score inhibition", "setting": "Farage", "result": "A1 (A1=0.0001 to <1)"},
      {"measurement": "CI50 growth inhibition", "setting": "SU-DHL-10-epst", "result": "T (T=0.5 to <0.7)"},
      {"measurement": "CI50 inhibition", "setting": "SU-DHL-10-epst", "result": "T (T=0.5 to <0.7)"},
      {"measurement": "Synergy Score growth inhibition", "setting": "SU-DHL-10-epst", "result": "A2 (A2=1 to <3)"},
      {"measurement": "Synergy Score inhibition", "setting": "SU-DHL-10-epst", "result": "A2 (A2=1 to <3)"},
      {"measurement": "Synergy Score growth inhibition", "setting": "RL", "result": "A1 (A1=0.0001 to <1)"},
      {"measurement": "Synergy Score inhibition", "setting": "RL", "result": "A1 (A1=0.0001 to <1)"},
      {"measurement": "CI50 growth inhibition", "setting": "KARPAS-422", "result": "S (S=0.01 to <0.5)"},
      {"measurement": "CI50 inhibition", "setting": "KARPAS-422", "result": "S (S=0.01 to <0.5)"},
      {"measurement": "Synergy Score growth inhibition", "setting": "KARPAS-422", "result": "A2 (A2=1 to <3)"},
      {"measurement": "Synergy Score inhibition", "setting": "KARPAS-422", "result": "A2 (A2=1 to <3)"},
      {"measurement": "CI50 growth inhibition", "setting": "WSU-NHL", "result": "T (T=0.5 to <0.7)"},
      {"measurement": "CI50 inhibition", "setting": "WSU-NHL", "result": "S (S=0.01 to <0.5)"},
      {"measurement": "Synergy Score growth inhibition", "setting": "WSU-NHL", "result": "A3 (A3=>3)"},
      {"measurement": "Synergy Score inhibition", "setting": "WSU-NHL", "result": "A2 (A2=1 to <3)"},
      {"measurement": "Synergy Score growth inhibition", "setting": "KARPAS-299", "result": "A1 (A1=0.0001 to <1)"},
      {"measurement": "Synergy Score inhibition", "setting": "KARPAS-299", "result": "A1 (A1=0.0001 to <1)"},
      {"measurement": "Synergy Score growth inhibition", "setting": "GRANTA-519", "result": "A1 (A1=0.0001 to <1)"},
      {"measurement": "Synergy Score inhibition", "setting": "GRANTA-519", "result": "A1 (A1=0.0001 to <1)"},
      {"measurement": "CI50 growth inhibition", "setting": "Jeko-1", "result": "S (S=0.01 to <0.5)"},
      {"measurement": "CI50 inhibition", "setting": "Jeko-1", "result": "T (T=0.5 to <0.7)"},
      {"measurement": "Synergy Score growth inhibition", "setting": "Jeko-1", "result": "A2 (A2=1 to <3)"},
      {"measurement": "Synergy Score inhibition", "setting": "Jeko-1", "result": "A2 (A2=1 to <3)"},
      {"measurement": "CI50 growth inhibition", "setting": "Mino", "result": "T (T=0.5 to <0.7)"},
      {"measurement": "CI50 inhibition", "setting": "Mino", "result": "W (W=≥1)"},
      {"measurement": "Synergy Score growth inhibition", "setting": "Mino", "result": "A2 (A2=1 to <3)"},
      {"measurement": "Synergy Score inhibition", "setting": "Mino", "result": "A1 (A1=0.0001 to <1)"},
      {"measurement": "CI50 growth inhibition", "setting": "NCI-H929", "result": "T (T=0.5 to <0.7)"},
      {"measurement": "CI50 inhibition", "setting": "NCI-H929", "result": "S (S=0.01 to <0.5)"},
      {"measurement": "Synergy Score growth inhibition", "setting": "NCI-H929", "result": "A3 (A3=>3)"},
      {"measurement": "Synergy Score inhibition", "setting": "NCI-H929", "result": "A3 (A3=>3)"},
      {"measurement": "CI50 growth inhibition", "setting": "[1]", "result": "S (S=0.01 to <0.5)"},
      {"measurement": "Synergy Score growth inhibition", "setting": "OMP-2", "result": "A2 (A2=1 to <3)"},
      {"measurement": "Synergy Score inhibition", "setting": "OMP-2", "result": "A1 (A1=0.0001 to <1)"},
      {"measurement": "Synergy Score growth inhibition", "setting": "RPMI-8226", "result": "A1 (A1=0.0001 to <1)"},
      {"measurement": "Synergy Score inhibition", "setting": "RPMI-8226", "result": "A1 (A1=0.0001 to <1)"}
    ]}
  ]
}
